# Test results as given in patent US20250295606A1, “BIOSOLUBLE POLYMER OR PARTICLE FOR DELIVERY OF AN ACTIVE AGENT AND A METHOD FOR THE PRODUCTION” (Tijani Holding B.V., priority 2021, published 2025).
# What was measured:
# pig = test system: pig
# Text: For sublingual (s.l.) treatment it is necessary to anesthetize the animals as to allow the application of the insulin complexes onto the sublingual mucosa, but long-term anesthesia is undesirable as it may affect insulin/glucose metabolism.
# [1] = test system: diabetic Göttingen minipigs; experiment: Sublingual SLIM particles vs s.c. insulin, blood glucose in diabetic Göttingen minipigs; assay type: in vivo; conditions: Minipig 2, different days; SLIM-AF5 15 IU sublingual, RHI 10 IU subcutaneous; 2H30, after first 10 min
# Text: Testing the sublingual application of SLIM particles loaded with insulin in normoglycemic and STZ diabetic […] in a chronic in vivo study.
# The purpose of this chronic, large animal in vivo study was to test the effective penetration of insulin containing particles through the sublingual mucosa, compare the effect with the subcutaneously applied human recombinant, measure the blood glucose changes and analyses the plasma insulin levels. Domestic pigs were also included in the study to compare the glucose lowering effect of insulin-loaded particles in the Göttingen minipigs and domestic pigs. […]
# In this study, we first recorded the effect of s.c. application of human recombinant insulin as reference compounds and s.c. and s.l. applications of micro-compounds. […] The glucose levels of the pigs were followed and monitored for at least 3 days. […]
# Corresponding to Example 20, the efficacy of SLIM particles was compared to subcutaneous injection of commercial recombinant human insulin in the same diabetic Göttingen minipig (Minipig 2) on different days. First day the animal received SLIM-AF5 (AF, 15 IU) particles sublingually and the second day was administered Recombinant Human Insulin (RHI, 10 IU) subcutaneously and the BG levels were monitored for 2H30 and compared (FIG. 22).
# [2] = Plasma insulin level in diabetic Göttingen minipigs; assay type: in vivo; conditions: diabetic Göttingen minipig, subcutaneous injection
# Text: The purpose of this chronic, large animal in vivo study was to test the effective penetration of insulin containing particles through the sublingual mucosa, compare the effect with the subcutaneously applied human recombinant, measure the blood glucose changes and analyses the plasma insulin levels. Domestic pigs were also included in the study to compare the glucose lowering effect of insulin-loaded particles in the Göttingen minipigs and domestic pigs. The test compounds were applied s.l. and s.c. to the pigs being under the anesthetic propofol (Amnesia).
# On the first day of acclimatization a central venous catheter was installed (Certofix®Mono B-Braun V430) for each domestic pig and Göttingen minipig. The pigs were fasted overnight before the day of operation, but supplied with water ad libitum. The animals were pre-anesthetized intramuscularly with Calypsol/Xilazine (2/1.8 mL, based on body weight) injections in the stalls to avoid stress, and were transported to the operating room. The anesthesia was maintained using isoflurane inhalation narcosis (2-2.5%) with oxygen. […]. The venous catheters were introduced by aseptic technique into the left external jugular vein. The end of the catheter was pulled subcutaneously to the back part of the head between the ears, and fixed by sutures, in two layers. […]
Molecule,"time until the jaw was relaxed (pig; 5 mg/kg, 20 mg/mL i.v.)","time until the pig was laying down (pig; 5 mg/kg, 20 mg/mL i.v.)","blood glucose measurements under anesthesia (pig; 20 minutes before, then 5, 10, 15 and 30 minutes after anesthesia)",BG level course [1],maxima of plasma insulin ([2]; 2 IU),maxima of plasma insulin ([2]; 10 IU)
CC(C)c1cccc(C(C)C)c1O [Propofol],60 s,30 s,in the normal range,,,
"recombinant human insulin: commercial recombinant human insulin, subcutaneous reference",,,,continue to decline linearly with the time but with a slightly different speed and slop,only one insulin maximum in plasma,only one maximum peak of plasma insulin
